Reference: patent US20180094019A1, “CRYSTALLINE FORMS OF MODIFIED TRITERPENOID HYDROCHLORIDE SALTS WITH HIV MATURATION INHIBITOR ACTIVITY” (VIIV HEALTHCARE UK (NO.4) LIMITED, priority 2015, published 2018)

What was measured:
[1] = Dehydration of form H-4 to anhydrous form P44 on drying / sensitivity to relative humidity; format: physicochemical
Description: Additionally, the ternary solvent mixture THF/water/MeCN can be used. If the resultant H-4 form is dried at a temperature greater than 60° C., then it converts to an anhydrous form of H-4, designated as P44. […] In practice, to minimize conversion to the P44 form, the drying can be conducted under a stream of humidified nitrogen gas.

[2] = Relationship of the crystalline forms: relative thermodynamic stability and critical water activity; format: physicochemical; conditions: ambient conditions; T1F-2 compared with T1F-1
Description: Herein we describe three crystalline forms of the monohydrochloride salt, Compound I, that have been prepared and identified: the monohydrochloride monohydrate H-4 form and two monohydrochloride forms designated as […]-1 and […]-2. […] The critical water activity between the […]-2 and H-4 forms is in the range 0.05-0.24.

| sensitivity to relative humidity [1] | drying temperature at which H-4 converts to anhydrous form P44 ([1]; drying of the resultant H-4 form) | temperature of dehydration to the P44 form ([1]; under a stream of dry nitrogen gas) | SMILES | relative thermodynamic stability of the crystalline forms [2] |
| --- | --- | --- | --- | --- |
| sensitive to relative humidity | greater than 60 °C | ≥ 30 °C | C=C(C)[C@@H]1CC[C@]2(NCCN3CCS(=O)(=O)CC3)CC[C@]3(C)[C@H](CC[C@@H]4[C@@]5(C)CC=C(c6ccc(C(=O)O)cc6)C(C)(C)[C@@H]5CC[C@]43C)[C@@H]12.Cl [Form H-4, 4-((1R,3aS,5aR,5bR, 7aR, 11aS,11bR,13aR,13bR)-3a-((2-(1,1-dioxidothiomorpholino)ethyl)amino)-5a,5b,8,8,11a-pentamethyl-1-(prop-1-en-2-yl)-2,3,3a,4,5,5a,5b,6,7,7a,8, 11,11a,11b, 12,13,13a,13b-octadecahydro-1H-cyclopenta[a]chrysen-9-yl)benzoic acid hydrochloride hydrate] |  |
|  |  |  | C=C(C)[C@@H]1CC[C@]2(NCCN3CCS(=O)(=O)CC3)CC[C@]3(C)[C@H](CC[C@@H]4[C@@]5(C)CC=C(c6ccc(C(=O)O)cc6)C(C)(C)[C@@H]5CC[C@]43C)[C@@H]12.Cl [Form T1F-2, 4-((1R,3aS,5aR,5bR, 7aR, 11aS,11bR,13aR,13bR)-3a-((2-(1,1-dioxidothiomorpholino)ethyl)amino)-5a,5b,8,8,11a-pentamethyl-1-(prop-1-en-2-yl)-2,3,3a,4,5,5a,5b,6,7,7a,8, 11,11a,11b, 12,13,13a,13b-octadecahydro-1H-cyclopenta[a]chrysen-9-yl)benzoic acid hydrochloride] | thermodynamically more stable than T1F-1 form |
